Where two headings read alike, the source gives them in different places.
What was measured:
Format in all cases: in vivo
[1] = tested on: goosegrass (Eleusine indica); experiment: Test C pre-/postemergence: goosegrass
In short: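 Visual injury scored 0–100 (100 = complete control) against untreated controls after 13–15 greenhouse days. Surfactant-containing solvent formulations applied either to soil after sowing (loam/sand) or over 1- to 4-leaf plants, 2–18 cm tall.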

[2] = tested on: rice (Oryza sativa); experiment: Test C flooded paddy test: rice; details: Oryza sativa, scale 0 to 100 (0 no effect, 100 complete control), read-out: Plant response rating, Rice; for plant injury at 62 g/ha: 62 g ai/ha; for plant injury at 125 g/ha: 125 g ai/ha; for plant injury at 250 g/ha: 250 g ai/ha; for plant injury at 31 g/ha: 31 g ai/ha
In short: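 2-leaf stage plants; pots flooded 3 cm above soil; compound applied into paddy water, depth maintained. Greenhouse 13–15 d. Visual rating vs controls, 0–100 (0 = no effect, 100 = complete control); dash = no result.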

[3] = tested on: canarygrass (Phalaris minor); experiment: Test D pre-/postemergence: canarygrass
In short: (§1)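 Applied as a non-phytotoxic solvent formulation with surfactant, compounds were tested preemergence in silt loam and postemergence on seedlings 2 to 18 cm high in peat-vermiculite medium. Evaluation was visual, 0 meaning no effect and 100 complete control, at 14 to 21 days.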

[4] = tested on: bromegrass, downy (downy bromegrass, Bromus tectorum); experiment: Test D pre-/postemergence: bromegrass, downy
In short: as §1

[5] = tested on: field violet (Viola arvensis); experiment: Test D pre-/postemergence: field violet
In short: as §1

[6] = tested on: speedwell (bird's-eye speedwell, Veronica persica); experiment: Test D pre-/postemergence: speedwell
In short: as §1

[7] = tested on: mustard, wild (wild mustard, Sinapis arvensis); experiment: Test D pre-/postemergence: mustard, wild
In short: as §1

[8] = tested on: wheat, winter (winter wheat, Triticum aestivum); experiment: Test D pre-/postemergence: wheat, winter
In short: as §1

[9] = Postemergence, 31 g ai/ha, scale 0 to 100 (0 no effect, 100 complete control)
[10] = Postemergence, 62 g ai/ha, scale 0 to 100 (0 no effect, 100 complete control)
[11] = Postemergence, 125 g ai/ha, scale 0 to 100, 0 no effect, 100 complete control
[12] = Postemergence, 250 g ai/ha, scale 0 to 100
[13] = Flood (flooded paddy test), visual rating after 13 to 15 days
[14] = Postemergence, 250 g ai/ha, scale 0 to 100 (0 no effect, 100 complete control)
[15] = Postemergence, 16 g ai/ha, scale 0 to 100
[16] = Preemergence, 16 g ai/ha, scale 0 to 100 (0 no effect, 100 complete control)
[17] = Preemergence, 31 g ai/ha, scale 0 to 100 (0 no effect, 100 complete control)
[18] = Preemergence, 62 g ai/ha, scale 0 to 100
[19] = Preemergence, 125 g ai/ha, scale 0 to 100
[20] = Preemergence, 250 g ai/ha, scale 0 to 100

SMILES: Cc1nn(-c2ccc(F)cc2)nc1Cc1ccnc(C(F)(F)F)c1 [Compound 16, 4-[[2-(4-fluorophenyl)-5-methyl-2H-1,2,3-triazol-4-yl]methyl]-2-(trifluoromethyl)pyridine]
- Plant response rating, Goosegrass [1, 9]: 5
- Plant response rating, Goosegrass [1, 10]: 5
- Plant response rating, Goosegrass [1, 11]: 10
- Plant response rating, Goosegrass [1, 12]: 10
- plant injury at 62 g/ha [2, 13]: 30%
- plant injury at 125 g/ha [2, 13]: 40%
- plant injury at 250 g/ha [2, 13]: 50%
- plant injury at 31 g/ha ([2]; Flood): 20%
- Plant response rating: Canarygrass [3, 9]: 30
- Plant response rating: Canarygrass [3, 10]: 35
- Plant response rating: Canarygrass [3, 11]: 40
- Plant response rating: Canarygrass [3, 14]: 80
- Plant response rating, Canarygrass [3, 15]: 20
- Plant response rating, Canarygrass [3, 16]: 20
- Plant response rating, Canarygrass [3, 17]: 40
- Plant response rating, Canarygrass [3, 18]: 50
- Plant response rating, Canarygrass [3, 19]: 90
- Plant response rating, Canarygrass [3, 20]: 100
- Plant response rating: Bromegrass, Downy [4, 9]: 10
- Plant response rating: Bromegrass, Downy [4, 10]: 20
- Plant response rating: Bromegrass, Downy [4, 11]: 40
- Plant response rating: Bromegrass, Downy [4, 14]: 50
- Plant response rating, Bromegrass, Downy [4, 15]: 0
- Plant response rating, Bromegrass, Downy [4, 16]: 0
- Plant response rating, Bromegrass, Downy [4, 17]: 20
- Plant response rating, Bromegrass, Downy [4, 18]: 25
- Plant response rating, Bromegrass, Downy [4, 19]: 25
- Plant response rating, Bromegrass, Downy [4, 20]: 40
- Plant response rating: Field Violet [5, 9]: 20
- Plant response rating: Field Violet [5, 10]: 30
- Plant response rating: Field Violet [5, 11]: 70
- Plant response rating: Field Violet [5, 14]: 80
- Plant response rating, Field Violet [5, 15]: 0
- Plant response rating, Field Violet [5, 16]: 0
- Plant response rating, Field Violet [5, 17]: 30
- Plant response rating, Field Violet [5, 18]: 80
- Plant response rating, Field Violet [5, 19]: 90
- Plant response rating, Field Violet [5, 20]: 100
- Plant response rating: Speedwell [6, 9]: 75
- Plant response rating: Speedwell [6, 10]: 85
- Plant response rating: Speedwell [6, 11]: 95
- Plant response rating: Speedwell [6, 14]: 100
- Plant response rating, Speedwell [6, 15]: 25
- Plant response rating, Speedwell [6, 17]: 20
- Plant response rating, Speedwell [6, 18]: 40
- Plant response rating, Speedwell [6, 19]: 100
- Plant response rating, Speedwell [6, 20]: 100
- Plant response rating: Mustard, Wild [7, 10]: 90
- Plant response rating: Mustard, Wild [7, 14]: 100
- Plant response rating, Mustard, Wild [7, 15]: 10
- Plant response rating, Mustard, Wild [7, 16]: 0
- Plant response rating, Mustard, Wild [7, 17]: 0
- Plant response rating, Mustard, Wild [7, 18]: 100
- Plant response rating, Mustard, Wild [7, 19]: 100
- Plant response rating, Mustard, Wild [7, 20]: 100
- Plant response rating: Wheat, Winter [8, 9]: 10
- Plant response rating: Wheat, Winter [8, 10]: 15
- Plant response rating: Wheat, Winter [8, 11]: 20
- Plant response rating: Wheat, Winter [8, 14]: 25
- Plant response rating, Wheat, Winter [8, 15]: 5
- Plant response rating, Wheat, Winter [8, 16]: 0
- Plant response rating, Wheat, Winter [8, 17]: 0
- Plant response rating, Wheat, Winter [8, 18]: 0
- Plant response rating, Wheat, Winter [8, 19]: 0
- Plant response rating, Wheat, Winter [8, 20]: 0

SMILES: Cc1nn(-c2ccc(F)cc2)nc1Oc1ccnc(C(F)(F)F)c1 [Compound 129, 4-[[2-(4-fluorophenyl)-5-methyl-2H-1,2,3-triazol-4-yl]oxy]-2-(trifluoromethyl)pyridine]
- Plant response rating, Goosegrass [1, 9]: 15
- Plant response rating, Goosegrass [1, 10]: 25
- Plant response rating, Goosegrass [1, 11]: 30
- Plant response rating, Goosegrass [1, 12]: 55
- Plant response rating, Goosegrass ([1]; Preemergence, 31 g ai/ha, scale of 0 to 100, 0 is no effect, 100 is complete control): 98
- Plant response rating, Goosegrass ([1]; Preemergence, 62 g ai/ha, scale of 0 to 100, 0 is no effect, 100 is complete control): 98
- Plant response rating, Goosegrass ([1]; Preemergence, 125 g ai/ha, scale 0 to 100, 0 no effect, 100 complete control): 98
- Plant response rating, Goosegrass ([1]; Preemergence, 250 g ai/ha, scale 0 to 100, 0 no effect, 100 complete control): 98
- plant injury at 125 g/ha [2, 13]: 40%
- plant injury at 250 g/ha [2, 13]: 50%
- plant injury at 31 g/ha ([2]; Flood): 20%
- plant injury at 62 g/ha ([2]; Flood): 30%
- Plant response rating: Canarygrass [3, 9]: 10
- Plant response rating: Canarygrass [3, 10]: 15
- Plant response rating: Canarygrass [3, 11]: 70
- Plant response rating: Canarygrass [3, 14]: 80
- Plant response rating, Canarygrass [3, 15]: 10
- Plant response rating, Canarygrass [3, 16]: 0
- Plant response rating, Canarygrass [3, 17]: 15
- Plant response rating, Canarygrass [3, 18]: 100
- Plant response rating, Canarygrass [3, 19]: 100
- Plant response rating, Canarygrass [3, 20]: 100
- Plant response rating: Bromegrass, Downy [4, 9]: 10
- Plant response rating: Bromegrass, Downy [4, 10]: 20
- Plant response rating: Bromegrass, Downy [4, 11]: 30
- Plant response rating: Bromegrass, Downy [4, 14]: 30
- Plant response rating, Bromegrass, Downy [4, 15]: 10
- Plant response rating, Bromegrass, Downy [4, 16]: 0
- Plant response rating, Bromegrass, Downy [4, 17]: 10
- Plant response rating, Bromegrass, Downy [4, 18]: 10
- Plant response rating, Bromegrass, Downy [4, 19]: 20
- Plant response rating, Bromegrass, Downy [4, 20]: 30
- Plant response rating: Field Violet [5, 9]: 100
- Plant response rating: Field Violet [5, 10]: 100
- Plant response rating: Field Violet [5, 11]: 100
- Plant response rating: Field Violet [5, 14]: 80
- Plant response rating, Field Violet [5, 15]: 40
- Plant response rating, Field Violet [5, 16]: 100
- Plant response rating, Field Violet [5, 17]: 100
- Plant response rating, Field Violet [5, 18]: 100
- Plant response rating, Field Violet [5, 19]: 100
- Plant response rating, Field Violet [5, 20]: 100
- Plant response rating: Speedwell [6, 9]: 100
- Plant response rating: Speedwell [6, 10]: 100
- Plant response rating: Speedwell [6, 11]: 100
- Plant response rating: Speedwell [6, 14]: 100
- Plant response rating, Speedwell [6, 15]: 100
- Plant response rating, Mustard, Wild [7, 16]: 0
- Plant response rating, Mustard, Wild [7, 17]: 5
- Plant response rating, Mustard, Wild [7, 18]: 40
- Plant response rating, Mustard, Wild [7, 19]: 80
- Plant response rating, Mustard, Wild [7, 20]: 100
- Plant response rating: Wheat, Winter [8, 9]: 5
- Plant response rating: Wheat, Winter [8, 10]: 10
- Plant response rating: Wheat, Winter [8, 11]: 20
- Plant response rating: Wheat, Winter [8, 14]: 20
- Plant response rating, Wheat, Winter [8, 15]: 5
- Plant response rating, Wheat, Winter [8, 16]: 0
- Plant response rating, Wheat, Winter [8, 17]: 0
- Plant response rating, Wheat, Winter [8, 18]: 0
- Plant response rating, Wheat, Winter [8, 19]: 5
- Plant response rating, Wheat, Winter [8, 20]: 10

From patent US9302999B2, “Substituted triazoles as herbicides” (E. I. DU PONT DE NEMOURS AND COMPANY, priority 2012, dated 2016)
